{"source": "patent US20090170846A1", "about": "“INHIBITORS OF THE HIV INTEGRASE ENZYME” (Pfizer Inc, priority 2005, published 2009)", "key": {"[1]": {"molecular_target": "T1, Full-length wild type HIV-1 integrase (SF1) (Human immunodeficiency virus type 1 group M subtype B, UniProt P04585)", "T1 construct": "made in house; host or cells: E. coli BL21 (DE3)", "test": "Integrase strand-transfer scintillation proximity assay", "type": "biochemical", "conditions": "integrase strand-transfer SPA; read-out: IC50", "how_it_was_run": "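Strand transfer used E. coli-expressed full-length HIV-1 integrase (aa 1–289). The donor was biotinylated, preprocessed U5 LTR viral ds-DNA bound to streptavidin SPA beads, with [3H]-thymidine-labelled host ds-DNA as target. Integration was detected by scintillation proximity.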"}, "[2]": {"tested_on": "RF strain of HIV-1 in CEM-SS cells", "test": "HIV-1 cell protection assay (XTT dye reduction)", "type": "cell-based", "conditions": "Human immunodeficiency virus 1, CEM-SS, 144 h", "how_it_was_run": "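CEM-SS cells infected at an moi giving about 90% kill (mock-infected for toxicity) and exposed to half-log compound dilutions for six days; XTT/PMS added for 4 h, formazan read at 450 nm. EC50 as protection to 50% of uninfected control, CC50 from uninfected cells, therapeutic index as CC50/EC50.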"}}, "data": [{"smiles": "CONC(=O)c1cc2c(C(=O)NC(C)C)cn(Cc3ccc(F)cc3)c2cn1", "note": "[Example 47, 1-(4-fluorobenzyl)-N3-isopropyl-N5-methoxy-1H-pyrrolo[2,3-c]pyridine-3,5-dicarboxamide]", "values": [{"measurement": "IC50", "setting": "[1]", "value": 249, "unit": "nM"}, {"measurement": "EC50", "setting": "[2]", "value": 32, "unit": "nM"}]}, {"smiles": "CONC(=O)c1cc2c(C(=O)NCC(F)F)cn(Cc3ccc(F)cc3)c2cn1", "note": "[Example 48, N3-(2,2-difluoroethyl)-1-(4-fluorobenzyl)-N5-methoxy-1H-pyrrolo[2,3-c]pyridine-3,5-dicarboxamide]", "values": [{"measurement": "IC50", "setting": "[1]", "value": 510, "unit": "nM"}, {"measurement": "EC50", "setting": "[2]", "value": 29, "unit": "nM"}]}]}
